Data on two compounds can be found in patent publication US7244718B2, “Water soluble prodrugs of hindered alcohols” (University of Kansas, priority 1998, dated 2007).

The data set in a line: Stability of the isolated free acid on standing at room temperature. It is filed as physicochemical. Conditions: isolated free acid (oil). Here is the method: To a solution of o-phosphonooxymethylpropofol dibenzyl ester (115 mg, 0.245 mmol) in methanol (10 mL) was added palladium on carbon (10%, 20 mg). This mixture was stirred under an atmosphere of hydrogen (1 atm) for 1.5 hour.
To a solution of O-phosphonooxymethyl-alpha-tocopherol dibenzyl ester (88 mg, 0.12 mmol) in tetrahydrofuran (10 mL) was added palladium on carbon (10%, 15 mg). The mixture was stirred under an atmosphere of hydrogen (1 atm) for 10 minutes (the reaction was complete after 5 minutes as judged by TLC). The catalyst was removed by filtration through Celite, the filtrate was evaporated at reduced pressure, and then dried in vacuo.

As to `CC(C)c1cccc(C(C)C)c1OCOP(=O)(O)O` [Id, O-phosphonooxymethylpropofol], the “stability at room temperature” value is “unstable on standing at room temperature”.

With `Cc1c(C)c2c(c(C)c1OCOP(=O)(O)O)CCC(C)(CCCC(C)CCCC(C)CCCC(C)C)O2` (stereo not drawn) [IIb, O-phosphonooxymethyl-alpha-tocopherol], the “stability at room temperature” value is “unstable at room temperature”.
